From PMC6152678, “In Vitro Comparative Study of the Inhibitory Effects of Mangiferin and Its Aglycone Norathyriol towards UDP-Glucuronosyl Transferase (UGT) Isoforms” (Molecules : A Journal of Synthetic Chemistry and Natural …, 2017) come the findings set out here.

For data set [1], the target named is T1, UGT2B15 (Homo sapiens, UniProt P54855).
T1 construct: purchased BD Gentest Corp. (Woburn, MA, USA); host or cells: baculovirus-infected insect cells
T1 sequence (P54855 24-530): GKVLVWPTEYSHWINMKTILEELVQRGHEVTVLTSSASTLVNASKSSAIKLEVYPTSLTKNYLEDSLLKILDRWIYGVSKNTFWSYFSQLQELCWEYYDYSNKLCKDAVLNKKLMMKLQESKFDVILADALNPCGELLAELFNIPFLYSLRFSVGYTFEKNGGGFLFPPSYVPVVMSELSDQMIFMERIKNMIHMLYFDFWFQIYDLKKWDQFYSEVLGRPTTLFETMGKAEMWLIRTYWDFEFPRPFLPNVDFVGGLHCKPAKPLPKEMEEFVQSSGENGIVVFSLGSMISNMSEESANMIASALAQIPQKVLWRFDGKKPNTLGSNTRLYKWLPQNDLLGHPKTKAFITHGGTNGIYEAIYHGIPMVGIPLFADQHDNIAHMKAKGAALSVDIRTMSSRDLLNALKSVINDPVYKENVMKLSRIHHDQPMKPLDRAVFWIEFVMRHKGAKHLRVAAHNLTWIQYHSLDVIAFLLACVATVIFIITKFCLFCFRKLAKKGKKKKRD
Nature of the data set: Inhibition of recombinant UGT-catalyzed 4-MU glucuronidation. The settings on record: pH 7.4, probe 4-methylumbelliferone (4-MU), 250 μM, 100 μM compound, 4-MU probe substrate, negative = activation. The format is biochemical. The procedure:
(§1) Sigma-Aldrich (St Louis, MO, USA) provided the following constituents in the incubation mixture: 4-methylumbelliferone (4-MU), 4-methylumbelliferone-β-D-glucuronide (4-MUG), Tris-HCl, 7-hydroxycoumarin, and uridine-diphosphoglucuronic acid (UDPGA) (trisodium salt). All other compounds were of high-performance liquid chromatography (HPLC) grade or of the highest grade commercially available. For enzyme sources, recombinant UGT isoforms expressed in baculovirus-infected insect cells were purchased from BD Gentest Corp. (Woburn, MA, USA), including UGT1A1, 1A3, 1A6, 1A7, 1A8, 1A9, 1A10, 2B4, 2B7, 2B15, and 2B17.
(§2) 4-MU, a nonspecific probe substrate for all the UGT isoforms, was employed to investigate the inhibition of MEF and NIR towards the activity of UGT isoforms. The incubation and analytical methods have been previously described. […] MEF and NIR were dissolved in the DMSO to make a stock solution of 20 mM, and various concentrations of working solutions were prepared through dilution with DMSO. 4-MU was used as a non-selective substrate of UGTs. There was a 5-min pre-incubation step at 37 °C before the reaction was initiated by the addition of UDPGA. 4-MU and inhibitors were previously dissolved in DMSO, and the total concentration of DMSO was 1%. The reactions were continued at 37 °C for 120 min for UGT1A1, UGT1A3, UGT1A10, UGT2B4, UGT2B7, UGT2B15 and UGT2B17, 30 min for UGT1A6, UGT1A7, UGT1A8, and UGT1A9, respectively. Reactions were terminated by the addition of 100 μL acetonitrile with 7-hydroxycoumarin (100 μM) as internal standard. The incubation mixtures were then centrifuged at 12,000 r/min for 10 min. 2 μL supernatant was injected into the UPLC system for analysis. An ACQUITY UPLC System (Waters, Milford, MA, USA) equipped with UV detector was used to analyze the samples, and the separation of all the compounds were carried out using a ACQUITY UPLC® BEH C18 (2.1 × 100 mm, 1.7 μm Waters) at a flow rate of 0.2 mL/min and UV detector at 316 nm. The mobile phase was consisted of ultrapure water containing 0.5% formic acid (A) and acetonitrile (B). The following gradient condition was used: 0–3.5 min, 10–65% B; 3.5–4.0 min, 65% B; 4.0–9.0 min, 10% B. To calculate the standard curve 0.1–100 μM of 4-MUG was used through drawing the peak area ration of 4-MUG/internal standard towards the concentration range of 4-MUG. The curve was linear over this concentration range, with an r^2 value > 0.99.
(§3) The inhibition type and Kinetics were determined for the inhibition of NTR towards UGT1A3, UGT1A7 and UGT1A9. The glucuronidation velocity of 4-MU was determined at multiple concentrations of 4-MU and NTR. Dixon and Lineweaver–Burk plots were employed to determine the inhibition type, and the second plot of the slopes from the Lineweaver–Burk plot versus the compound concentrations was utilized to calculate the Ki value. The determination of IC50 was calculated using Probit analysis in SPSS11.5 (SPSS, Chicago, IL, USA). The Student’s t-test was adopted at a significance level of p < 0.05 to determine statistically significant differences among experimental groups.

Data set [2] has as its target T2, UGT1A6 (Homo sapiens, UniProt P19224).
T2 construct: purchased BD Gentest Corp. (Woburn, MA, USA); host or cells: baculovirus-infected insect cells
T2 sequence (P19224 27-532): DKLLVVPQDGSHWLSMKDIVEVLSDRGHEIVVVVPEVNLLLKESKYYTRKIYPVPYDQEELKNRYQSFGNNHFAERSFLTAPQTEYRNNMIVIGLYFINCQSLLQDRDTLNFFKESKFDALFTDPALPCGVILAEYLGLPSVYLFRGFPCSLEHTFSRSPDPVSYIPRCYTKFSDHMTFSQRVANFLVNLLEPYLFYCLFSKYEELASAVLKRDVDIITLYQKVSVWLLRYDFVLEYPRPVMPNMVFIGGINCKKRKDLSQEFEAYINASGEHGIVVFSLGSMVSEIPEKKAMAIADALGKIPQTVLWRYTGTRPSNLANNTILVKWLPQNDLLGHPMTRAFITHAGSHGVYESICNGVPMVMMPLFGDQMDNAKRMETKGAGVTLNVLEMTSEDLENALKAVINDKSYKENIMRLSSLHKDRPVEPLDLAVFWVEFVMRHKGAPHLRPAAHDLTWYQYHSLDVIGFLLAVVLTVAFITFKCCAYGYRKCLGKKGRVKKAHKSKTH
The data set is described as above. Format: biochemical. The settings on record: pH 7.4, probe 4-methylumbelliferone (4-MU), 110 μM, 100 μM compound, 4-MU probe substrate, negative = activation. As for the experimental part:
as §1, §2, §3

Turning to `O=c1c2cc(O)c(O)cc2oc2cc(O)c([C@@H]3O[C@H](CO)[C@@H](O)[C@H](O)[C@H]3O)c(O)c12` [MGF, 1,3,6,7-tetrahydroxyxanthone-C-2-β-D-glucoside], in data set [1], the inhibition at 120 min, 100 µM was determined as 8.9%. In addition, the inhibition at 30 min, 100 µM in data set [2] is 11.2%.
In the case of `O=c1c2cc(O)c(O)cc2oc2cc(O)cc(O)c12` [NTR, 1,3,6,7-tetrahydroxyxanthone], in data set [1], the inhibition at 120 min, 100 µM was 46.3%. Besides, the inhibition at 30 min, 100 µM in data set [2] came to 46.2%.
